Patent publication US11773078B2, “Furin inhibitors” (Glaxosmithkline Intellectual Property Development Limited, priority 2018, dated 2023)
Counter-ions that a name gives are not always drawn.

Key:
[1] = target: T1, Furin (108-574-Tev-Flag-His) enzyme (Homo sapiens, UniProt P09958); assay: Furin enzyme assay; type: biochemical
T1 construct: Furin (108-574-Tev-Flag-His) enzyme was expressed and purified from CHO cells; TEV cleavage site (C); FLAG (C); His (C); made in house; host or cells: CHO cells
T1 sequence (P09958 108-574): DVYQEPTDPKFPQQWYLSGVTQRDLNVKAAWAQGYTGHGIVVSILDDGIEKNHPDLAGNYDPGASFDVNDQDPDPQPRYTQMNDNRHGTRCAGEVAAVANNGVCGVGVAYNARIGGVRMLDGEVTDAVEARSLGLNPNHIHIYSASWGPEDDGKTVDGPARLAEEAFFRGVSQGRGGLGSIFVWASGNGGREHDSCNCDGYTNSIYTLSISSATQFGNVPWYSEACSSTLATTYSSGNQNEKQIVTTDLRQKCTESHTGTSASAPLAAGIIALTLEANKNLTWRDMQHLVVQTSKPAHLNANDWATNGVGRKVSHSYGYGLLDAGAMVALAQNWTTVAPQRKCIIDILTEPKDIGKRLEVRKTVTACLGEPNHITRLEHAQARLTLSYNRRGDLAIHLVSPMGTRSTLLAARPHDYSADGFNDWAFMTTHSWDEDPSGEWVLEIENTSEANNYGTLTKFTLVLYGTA
Procedure: Reactions were performed in black 384-well polystyrene low volume plates (Greiner). Furin (108-574-Tev-Flag-His) enzyme was expressed and purified from CHO cells. Compounds of the invention were dissolved in DMSO (1.0 mM) and serially diluted 1 to 3 with DMSO through eleven dilutions to provide a final compound concentration range from 0.00017 to 10 μM. 0.05 μL of each concentration was transferred to the corresponding well of an assay plate, and then 5 μL of 40 pM furin enzyme in assay buffer (100 mM HEPES pH7.5, 1 mM CaCl2 and 0.005% Triton X-100) was added using a Multidrop Combi (Thermo) to the compound plates, and mixed by inversion. […] The plates were centrifuged at 500×g for 1 minute and incubated at room temperature for two hours. Enzyme inhibition is then quantified using an Envision instrument (PerkinElmer).
Data were analyzed using AbaseXE 7.3, utilizing a four-parameter curve fit equation. The following values were used to define limits and/or constraints for each of the four parameters: • Minimum—limit −10 to 10 • Maximum—90 to 110 • Slope—limit 0.5 to 2.0 • pXC50 confidence interval—10
Raw counts obtained from the respective plate reader (Perkin Elmer) were captured for data analysis. Curves were generated using the equation: Y=A+[(B−A)/(1+(10^C/x)^D)] • where: A=minimum response • B=maximum response • C=log 10*XC50 • D=slope factor • x=log 10 compound concentration [M]
The results were recorded as pXC50 values (−C in the above equation)

[2] = target: T2, furin (endogenous protease) in U20S cells (Homo sapiens, UniProt P09958); assay: Furin cell-based assay (image-based, Golgi-targeted GFP with BMP10 furin/PCSK cleavage site); conditions: 24-hour incubation, read-out: furin golgi cell pXC50 (converted);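 also: Read-out is mean GFP fluorescence of Golgi puncta per cell by high-content imaging, retained when furin inhibited, over an eleven-point 0.00017–10 µM series, four-parameter fit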
T2 construct: the endogenous protease cleaves GFP; endogenous in cells; host or cells: U2OS cells transduced with a BacMam reporter
T2 sequence (P09958 108-794): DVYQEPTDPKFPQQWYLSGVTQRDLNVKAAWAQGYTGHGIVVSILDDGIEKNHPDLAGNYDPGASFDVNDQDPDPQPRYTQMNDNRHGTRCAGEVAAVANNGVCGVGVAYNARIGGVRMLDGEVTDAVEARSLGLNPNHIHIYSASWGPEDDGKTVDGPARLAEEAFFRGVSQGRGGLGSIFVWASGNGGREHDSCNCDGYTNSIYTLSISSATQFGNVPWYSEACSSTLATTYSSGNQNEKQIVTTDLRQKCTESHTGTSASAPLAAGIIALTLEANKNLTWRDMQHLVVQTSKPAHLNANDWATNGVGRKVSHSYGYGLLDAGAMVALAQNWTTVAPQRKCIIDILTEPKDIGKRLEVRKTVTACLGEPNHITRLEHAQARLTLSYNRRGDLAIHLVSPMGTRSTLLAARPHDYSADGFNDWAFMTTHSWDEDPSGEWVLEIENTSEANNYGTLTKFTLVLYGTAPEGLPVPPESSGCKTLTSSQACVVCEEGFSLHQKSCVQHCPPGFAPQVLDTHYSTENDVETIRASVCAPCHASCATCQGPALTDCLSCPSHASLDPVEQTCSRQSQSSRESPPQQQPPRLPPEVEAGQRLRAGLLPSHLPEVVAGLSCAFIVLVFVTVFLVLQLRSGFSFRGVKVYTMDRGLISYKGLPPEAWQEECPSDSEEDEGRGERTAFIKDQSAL

Row | furin enzyme pIC50 [1] | EC50 [2] | IC50 ([1]; read-out: furin enzyme pIC50 (converted)) | SMILES
1 | 8.8 | 3.16 nM | – | CC(=O)NCC1CCN(Cc2cc(Oc3ccc(N4CCN(CC5(O)CC5)CC4)nc3)nc(-c3cc(Cl)cc(Cl)c3)c2)CC1 [Example 35, N-((1-((2-(3,5-Dichlorophenyl)-6-((6-(4-((1-hydroxycyclopropyl)methyl)piperazin-1-yl)pyridin-3-yl)oxy)pyridin-4-yl)methyl)piperidin-4-yl)methyl)acetamide]
2 | 9 | 5.01 nM | – | CCNC(=O)CC1CCN(Cc2cc(Oc3ccc(N4CCN(CCCS(C)(=O)=O)CC4)nc3)nc(-c3cc(Cl)cc(Cl)c3)c2)CC1 [Example 36, 2-(1-((2-(3,5-Dichlorophenyl)-6-((6-(4-(3-(methylsulfonyl)propyl)piperazin-1-yl)pyridin-3-yl)oxy)pyridin-4-yl)methyl)piperidin-4-yl)-N-ethylacetamide]
3 | 8.5 | 12.6 nM | – | CNCc1cc(Oc2cnc(N3CCN(CCCS(C)(=O)=O)CC3)nc2)nc(-c2cc(Cl)cc(Cl)c2)c1 [Example 37, 1-(2-(3,5-Dichlorophenyl)-6-((2-(4-(3-(methylsulfonyl)propyl)piperazin-1-yl)pyrimidin-5-yl)oxy)pyridin-4-yl)-N-methylmethanamine]
4 | 9 | 126 nM | – | NS(=O)(=O)CC1CCN(Cc2cc(Oc3ccc(N4CCN(CCC(=O)O)CC4)nc3)nc(-c3cc(Cl)cc(Cl)c3)c2)CC1 [Example 38, 3-(4-(5-((6-(3,5-Dichlorophenyl)-4-((4-(sulfamoylmethyl)piperidin-1-yl)methyl)pyridin-2-yl)oxy)pyridin-2-yl)piperazin-1-yl)propanoic acid]
5 | 8.3 | 79.4 nM | – | CS(=O)(=O)CC1CCN(Cc2cc(Oc3ccc(N4CCN(CCC(=O)O)CC4)nc3)nc(-c3cc(Cl)cc(Cl)c3)c2)CC1 [Example 39, 3-(4-(5-((6-(3,5-Dichlorophenyl)-4-((4-((methylsulfonyl)methyl)piperidin-1-yl)methyl)pyridin-2-yl)oxy)pyridin-2-yl)piperazin-1-yl)propanoic acid]
6 | 7.6 | 10 nM | – | CNC(=O)NCC1CCN(Cc2cc(Oc3ccc(N4CCN(CCO)CC4)nc3)nc(-c3cc(Cl)cc(Cl)c3)c2)CC1 [Example 40, 1-((1-((2-(3,5-Dichlorophenyl)-6-((6-(4-(2-hydroxyethyl)piperazin-1-yl)pyridin-3-yl)oxy)pyridin-4-yl)methyl)piperidin-4-yl)methyl)-3-methylurea]
7 | 7.7 | 316 nM | – | CC(=O)NCC1CCN(Cc2cc(Oc3ccc(N)cc3)cc(-c3cc(Cl)cc(Cl)c3)c2)CC1 [Example 42, N-((1-((5-(4-Aminophenoxy)-3′,5′-dichloro-[1,1′-biphenyl]-3-yl)methyl)piperidin-4-yl)methyl)acetamide]
8 | 9.5 | 25.1 nM | – | CS(=O)(=O)NCC1CCN(Cc2cc(Oc3ccc(N4CCN(CCC(=O)O)CC4)nc3)nc(-c3cc(Cl)cc(Cl)c3)c2)CC1 [Example 44]
9 | 7 | 501 nM | – | CC(=O)NCC1CCN(Cc2cc(Oc3cnc(N)c(F)c3)cc(-c3cc(Cl)cc(Cl)c3)c2)CC1 [Example 46, N-((1-((5-((6-Amino-5-fluoropyridin-3-yl)oxy)-3′,5′-dichloro-[1,1′-biphenyl]-3-yl)methyl)piperidin-4-yl)methyl)acetamide, 2 hydrochloride]
10 | 8.9 | 3.98 nM | – | CNC(=O)NCC1CCN(Cc2cc(Oc3cnc(N4CCN(CCO)CC4)nc3)nc(-c3cc(Cl)cc(Cl)c3)c2)CC1 [Example 47, 1-((1-((2-(3,5-Dichlorophenyl)-6-((2-(4-(2-hydroxyethyl)piperazin-1-yl)pyrimidin-5-yl)oxy)pyridin-4-yl)methyl)piperidin-4-yl)methyl)-3-methylurea, 4 hydrochloride]
11 | 9.4 | 2.51 nM | – | CNC(=O)NCC1CCN(Cc2cc(Oc3cnc(N4CCN(CCCS(N)(=O)=O)CC4)nc3)nc(-c3cc(Cl)cc(Cl)c3)c2)CC1 [Example 48, 3-((4-(5-((6-(3,5-Dichlorophenyl)-4-((4-((3-methylureidolmethyl)piperidin-1-yl)methyl)pyridin-2-yl)oxy)pyrimidin-2-yl)piperazin-1-yl)propane-1-sulfonamide. 4 hydrochloride]
12 | 9.1 | 20 nM | – | COC(=O)NCC1CCN(Cc2cc(Oc3cnc(N4CCNCC4)nc3)nc(-c3cc(Cl)cc(Cl)c3)c2)CC1 [Example 49, Methyl((1-((2-(3,5-dichlorophenyl)-6-((2-(piperazin-1-yl)pyrimidin-5-yl)oxy)pyridin-4-yl)methyl)piperidin-4-yl)methyl)carbamate, 4 hydrochloride]
13 | 8.1 | 126 nM | – | CNCc1cc(Oc2ccc(N3CCN(CCC(=O)O)CC3)nc2)nc(-c2cc(Cl)cc(Cl)c2)c1 [Example 50, 3-(4-(5-((6-(3,5-Dichlorophenyl)-4-((methylamino)methyl)pyridin-2-yl)oxy)pyridin-2-yl)piperazin-1-yl)propanoic acid, 4 hydrochloride]
14 | 8.2 | 158 nM | – | COC(=O)NCC1(F)CCN(Cc2cc(Oc3cnc(N4CCN(CCC(=O)O)CC4)nc3)nc(-c3cc(Cl)cc(Cl)c3)c2)CC1 [Example 51, 3-((4-(5-((6-(3,5-Dichlorophenyl)-4-((4-fluoro-4-(((methoxycarbonyl)amino)methyl)piperidin-1-yl)methyl)pyridin-2-yl)oxy)pyrimidin-2-yl)piperazin-1-yl)propanoic acid, 4 hydrochloride]
15 | 9.8 | 1.26 nM | – | CN1CCN(c2ncc(Oc3cc(CN4CCC(CCO)CC4)cc(-c4cc(Cl)cc(Cl)c4)n3)cn2)CC1 [Example 52, 2-(1-((2-(3,5-Dichlorophenyl)-6-((2-(4-methylpiperazin-1-yl)pyrimidin-5-yl)oxy)pyridin-4-yl)methyl)piperidin-4-yl)ethanol]
16 | 8.7 | 15.8 nM | – | CN1CCN(c2ncc(Oc3cc(CN4CCC(OCC(=O)O)CC4)cc(-c4cc(Cl)cc(Cl)c4)n3)cn2)CC1 [Example 53, 2-((1-((2-(3,5-Dichlorophenyl)-6-((2-(4-methylpiperazin-1-yl)pyrimidin-5-yl)oxy)pyridin-4-yl)methyl)piperidin-4-yl)oxy)acetic acid, 4 hydrochloride]
17 | 8.2 | 158 nM | – | NC(=O)OCCN1CCN(Cc2cc(Oc3cnc(N4CCN(CCC(=O)O)CC4)nc3)nc(-c3cc(Cl)cc(Cl)c3)c2)CC1 [Example 54, 3-(4-(5-((4-((4-(2-(Carbamoyloxy)ethyl)piperazin-1-yl)methyl)-6-(3,5-dichlorophenyl)pyridin-2-yl)oxy)pyrimidin-2-yl)piperazin-1-yl)propanoic acid, 5 hydrochloride]
18 | 8.2 | 251 nM | – | NC(=O)OCCN1CCN(Cc2cc(Oc3ccc(N4CCN(CCC(=O)O)CC4)nc3)nc(-c3cc(Cl)cc(Cl)c3)c2)CC1 [Example 55, 3-(4-(5-((4-((4-(2-(carbamoyloxy)ethyl)piperazin-1-yl)methyl)-6-(3,5-dichlorophenyl)pyridin-2-yl)oxy)pyridin-2-yl)piperazin-1-yl)propanoic acid]
19 | – | 5.01 nM | 0.0316 nM | COC(=O)NCC1CCN(Cc2cc(Oc3cnc(N4CC5CCC(C4)N5CCC(=O)O)nc3)nc(-c3cc(Cl)cc(Cl)c3)c2)CC1 [Example 56, 3-(3-(5-((6-(3,5-dichlorophenyl)-4-((4-(((methoxycarbonyl)amino)methyl)piperidin-1-yl)methyl)pyridin-2-yl)oxy)pyrimidin-2-yl)-3,8-diazabicyclo[3.2.1]octan-8-yl)propanoic acid]
20 | 10.3 | 10 nM | – | CC(CCN1CCN(c2ncc(Oc3cc(CN4CCC(CCO)CC4)cc(-c4cc(Cl)cc(Cl)c4)n3)cn2)CC1)C(=O)O (centres unmarked) [Example 57, 4-(4-(5-((6-(3,5-dichlorophenyl)-4-((4-(2-hydroxyethyl)piperidin-1-yl)methyl)pyridin-2-yl)oxy)pyrimidin-2-yl)piperazin-1-yl)-2-methylbutanoic acid]
21 | 9.2 | 15.8 nM | – | O=C(O)CCN1CCN(c2ccc(Oc3cc(CN4CCC(CNC(=O)C5CC5)CC4)cc(-c4cc(Cl)cc(Cl)c4)n3)cn2)CC1 [Example 58, 3-(4-(5-((4-((4-(cyclopropanecarboxamidomethyl)piperidin-1-yl)methyl)-6-(3,5-dichlorophenyl)pyridin-2-yl)oxy)pyridin-2-yl)piperazin-1-yl)propanoic acid]
22 | 8.9 | 6.31 nM | – | CCC(=O)NCC1CCN(Cc2cc(Oc3cnc(N4CCN(CCC(C)C(=O)O)CC4)nc3)nc(-c3cc(Cl)cc(Cl)c3)c2)CC1 (centres unmarked) [Example 59, 4-(4-(5-((6-(3,5-dichlorophenyl)-4-((4-(propionamidomethyl)piperidin-1-yl)methyl)pyridin-2-yl)oxy)pyrimidin-2-yl)piperazin-1-yl)-2-methylbutanoic acid]
